# Reference: publication PMC10606833, “A Comprehensive Study on the Chemical Characterization and Neuroprotective Evaluation of Pracaxi Nuts Extracts Obtained by a Sustainable Approach” (Foods, 2023)
# Assays:
# [1] = ROS scavenging capacity, oxygen radical absorbance capacity (ORAC) assay; assay type: biochemical; details: optimized PLE extracts and reference standard (Table 2)
# Method: (§1) The ROS scavenging capacity of the PLE extracts obtained from pracaxi nuts cake was measured using the oxygen radical absorbance capacity (ORAC) assay previously described. Ascorbic acid and 10% EtOH (v/v) were used as reference standard and blank control solutions, respectively. Complementary, the RNS scavenging capacity was estimated referring to the nitric oxide (NO) radical scavenging assay. Ascorbic acid was used as the reference standard and 25% EtOH was used as blank control solution. The AChE and BChE inhibitory activities of pracaxi nuts cake PLE extracts were estimated according to the fluorescent enzyme kinetic method described by Sanchez-Martinez et al.. […] Finally, the LOX inhibitory activity of pracaxi nuts cake PLE extracts was determined as described in [26], with slight modifications.
# [2] = RNS scavenging capacity, nitric oxide (NO) radical scavenging assay; assay type: biochemical; details: optimized PLE extracts and reference standard (Table 2)
# Method: as §1
smiles,measurement,setting,value
"O=C1O[C@H]([C@@H](O)CO)C(O)=C1O [Ascorbic acid, ascorbic acid]",ROS (IC50),[1],3.2 ± 0.2 µg/mL
same,RNS (IC50),[2],1120 ± 16 µg/mL
